Tests used:
[1] = tested on: HEK293 cells that stably expressed TCR-GFP; assay: Accumulation of ERAD reporter TCR-alpha-GFP; type: cell-based; details: 2 h at 37° C., fluorescence microscopy
Description: Since p97 has a well-established role in ERAD, it was also determined whether compound 2 affects the accumulation of an ERAD-reporter, TCR-alpha-GFP. HEK293 cells that stably expressed TCR-GFP were treated with MG132 (see FIG. 19), compound 1 or compound 2 (FIG. 20) at the indicated concentrations for 2 h at 37° C. prior to being imaged by fluorescence microscopy to determine TCR-GFP accumulation. […] It was thus concluded that compound 2 inhibits p97 in cells, resulting in the accumulation of both soluble and insoluble high molecular weight ubiquitin conjugates and UPS substrates whose degradation depends upon p97.
HEK293 cells that stably expressed TCR-GFP were treated with the Velcade (FIG. 30) or compound 8 (FIG. 31) at the indicated concentrations for 2 h at 37° C. prior to being imaged by fluorescence microscopy to quantify TCR-GFP accumulation.

LNCaP = assay: MTT cell growth assay, LNCaP; type: cell-based; details: Homo sapiens, 48 or 72 h, read-out: Cell line inhibition of growth GI50 LNCaP
Description: (§1) To probe further the effect of compound 2 and related compounds 1, 3, 5, 6 and 7, various concentrations of these compounds were added to 13 different cell lines and incubated for 48 or 72 h. An MTT assay was then performed to evaluate cell growth and survival.

HTC116 WT = assay: MTT cell growth assay, HTC116 WT; type: cell-based; details: 48 or 72 h, read-out: Cell line inhibition of growth GI50 HTC116 WT
Description: as §1

Hamster NSF = Hamster NSF (Cricetulus griseus, UniProt P18708); assay: In vitro ATP hydrolysis, NSF; type: biochemical
Sequence of Hamster NSF (P18708 whole entry): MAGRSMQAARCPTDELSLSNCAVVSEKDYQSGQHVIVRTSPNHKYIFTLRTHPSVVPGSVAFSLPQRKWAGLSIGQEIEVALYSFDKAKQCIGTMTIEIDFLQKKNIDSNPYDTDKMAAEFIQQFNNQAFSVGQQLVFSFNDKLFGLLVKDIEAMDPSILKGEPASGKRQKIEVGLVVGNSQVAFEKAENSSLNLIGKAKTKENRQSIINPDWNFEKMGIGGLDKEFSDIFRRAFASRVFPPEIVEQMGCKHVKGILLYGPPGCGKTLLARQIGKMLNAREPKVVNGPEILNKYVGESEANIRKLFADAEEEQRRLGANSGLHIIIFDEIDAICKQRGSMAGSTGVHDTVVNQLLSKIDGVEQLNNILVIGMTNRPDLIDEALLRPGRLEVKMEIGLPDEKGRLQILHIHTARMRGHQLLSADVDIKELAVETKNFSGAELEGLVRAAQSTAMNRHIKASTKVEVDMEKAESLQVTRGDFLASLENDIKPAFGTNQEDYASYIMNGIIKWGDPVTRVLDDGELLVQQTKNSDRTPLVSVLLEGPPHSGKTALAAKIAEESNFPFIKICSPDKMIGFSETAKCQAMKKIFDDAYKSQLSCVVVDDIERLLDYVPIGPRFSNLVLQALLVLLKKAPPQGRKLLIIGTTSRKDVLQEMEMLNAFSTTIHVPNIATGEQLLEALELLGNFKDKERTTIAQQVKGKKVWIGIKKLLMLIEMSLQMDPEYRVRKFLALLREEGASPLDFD
Description: (§2) To determine whether cysteine 522 is necessary for inhibition of p97 by compound 2, a mutant of p97 was constructed in which cysteine 522 was converted to either alanine (C522A-mp97) or threonine (C522T-mp97). The IC50 values of compound 2 were measured the against various enzymes during a 20-minute preincubation (see Table 2). Mutation of cysteine 522 in p97 to either alanine or threonine decreased sensitivity to compound 2 by greater than 100-fold. On the other hand, yeast Cdc48, which normally is quite resistant to compound 2, became nearly 30-fold more sensitive to the compound upon introduction of a cysteine in place of threonine 532.
(§3) To further address the specificity of inhibition by compound 2, its activity against two other AAA ATPases, NSF and the 26S proteasome, was assayed. Although NSF is known to be sensitive to thiol-reactive agents, it was more than 100-fold less sensitive to compound 2 than p97 (Table 2). […] The results with NSF and the 26S proteasome are noteworthy because both the active D1 domain of NSF and the Rpt3 subunit of the 26S proteasome have a cysteine in the position analogous to cysteine 522 of p97 (FIG. 3).

Ub-G76V-GFP/HeLa cells = assay: Degradation of pre-accumulated Ub-G76V-GFP (cycloheximide chase after MG132 washout); type: cell-based; details: for % K: relative to 0 μM
Description: To evaluate this possibility, an assay was developed to determine the rate of degradation of pre-accumulated Ub-G76V-GFP molecules. […] Cells were then washed with PBS three times remove the MG132. Cells were then refreshed by adding DMEM containing cycloheximide (50 μg/mL; to block production of more Ub-G76V-GFP) and test compounds (0˜10 μM) were added into cells. Eight 96-well plates were prepared and one of the plates was imaged at 25, 50, 70, 100, 110, 125, 145, or 170 min after washing with PBS three times. After washing out MG132, degradation of pre-accumulated Ub-G76V-GFP appears to follow pseudo-first order reaction. Rate constant (K; 1/min) can be determined from the slope of plotting Ln (Fold Accumulation) versus Time (min) (see FIG. 17 and FIG. 18).
Ub-G76V-GFP/HeLa cells were treated with MG132 (2 μM) for 1 h and washed with PBS three times. DMEM containing cycloheximide (50 μg/mL) and compound 8 (0-10 μM) was added into cells. Eight 96-well plates were prepared and one of the plates was imaged at 25, 50, 70, 100, 110, 125, 145, or 170 min after washing with PBS three times.

HeLa cells = assay: Accumulation of high molecular weight ubiquitin conjugates (anti-ubiquitin immunoblot), HeLa cells; type: cell-based; details: 1 h at 37° C.
Description: To evaluate whether compound 2 can target p97 activity in cells, we sought to determine whether this compound induces accumulation of high molecular weight ubiquitin conjugates, since it is known that RNAi-mediated knockdown of p97 in mammalian cells has this effect (Wojcik, C. et al. J. Cell Sci. (2004) 117, 281-292). As a positive control for this experiment, the proteasome inhibitor MG132 was used. […] The cells were then harvested, lysed, and centrifuged to generate soluble and insoluble fractions. These fractions were then immunoblotted with anti-ubiquitin antibodies to detect accumulation of high molecular weight conjugates. Blots were also probed with anti-PSTAIRE antibodies as a loading control. […] This effect is particularly pronounced in the insoluble fraction.
To evaluate whether compound 8 can target p97 activity in cells, it was determined whether this compound induces accumulation of high molecular weight ubiquitin conjugates, since it is known that RNAi-mediated knockdown of p97 in mammalian cells has this effect (Wojcik, C. et al. J. Cell Sci. (2004) 117, 281-292). The proteasome inhibitor bortezomib (velcade) was employed as a positive control for this experiment. HeLa (FIG. 25) or RPMI8226 (FIG. 26) cells were treated with Velcade, compound 8, or a combination thereof for 1 h at 37° C. The cells were then harvested and cell lysates were immunoblotted with anti-ubiquitin antibodies to detect accumulation of high molecular weight conjugates. Blots were also probed with anti-PSTAIRE antibodies as a loading control.

HCT116 p53−/− = assay: MTT cell growth assay, HCT116 p53−/−; type: cell-based; details: Homo sapiens, HCT-116, 48 or 72 h, read-out: Cell line inhibition of growth GI50 HCT116 p53−/−
Description: as §1

MCF7 = assay: MTT cell growth assay, MCF7; type: cell-based; details: Homo sapiens, 48 or 72 h, read-out: Cell line inhibition of growth GI50 MCF7
Description: as §1

HeLa = assay: MTT cell growth assay, HeLa; type: cell-based; details: Homo sapiens, 48 or 72 h, read-out: Cell line inhibition of growth GI50 HeLa
Description: as §1

Human 19S ATPase = assay: In vitro ATP hydrolysis, 19S ATPase of the 26S proteasome; type: biochemical; details: 20-minute preincubation
Sequence of Human 19S ATPase (P17980 whole entry): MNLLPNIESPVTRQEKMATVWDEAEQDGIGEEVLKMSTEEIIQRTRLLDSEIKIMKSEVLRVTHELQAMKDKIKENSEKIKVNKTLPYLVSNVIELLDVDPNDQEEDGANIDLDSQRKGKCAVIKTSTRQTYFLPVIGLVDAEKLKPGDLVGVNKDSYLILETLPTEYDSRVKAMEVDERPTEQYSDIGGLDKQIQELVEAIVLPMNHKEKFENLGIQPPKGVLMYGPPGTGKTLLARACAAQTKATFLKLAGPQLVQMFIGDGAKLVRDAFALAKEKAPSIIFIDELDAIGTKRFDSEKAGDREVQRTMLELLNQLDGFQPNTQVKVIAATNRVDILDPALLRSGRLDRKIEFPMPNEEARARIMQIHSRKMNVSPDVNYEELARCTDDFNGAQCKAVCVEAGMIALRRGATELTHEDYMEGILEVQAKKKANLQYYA
Sequence of Human 19S ATPase (P62333 whole entry, further chain): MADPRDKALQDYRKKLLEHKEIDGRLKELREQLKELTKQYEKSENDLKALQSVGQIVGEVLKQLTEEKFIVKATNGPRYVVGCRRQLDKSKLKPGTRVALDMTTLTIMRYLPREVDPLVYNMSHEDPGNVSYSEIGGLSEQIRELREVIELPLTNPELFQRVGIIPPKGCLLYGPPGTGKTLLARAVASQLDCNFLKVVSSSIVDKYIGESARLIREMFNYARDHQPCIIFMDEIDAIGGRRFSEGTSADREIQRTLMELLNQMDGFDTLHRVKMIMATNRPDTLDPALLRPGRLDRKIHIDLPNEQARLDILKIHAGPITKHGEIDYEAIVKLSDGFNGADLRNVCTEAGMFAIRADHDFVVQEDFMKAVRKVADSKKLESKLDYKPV
Sequence of Human 19S ATPase (P62195 2-406, further chain): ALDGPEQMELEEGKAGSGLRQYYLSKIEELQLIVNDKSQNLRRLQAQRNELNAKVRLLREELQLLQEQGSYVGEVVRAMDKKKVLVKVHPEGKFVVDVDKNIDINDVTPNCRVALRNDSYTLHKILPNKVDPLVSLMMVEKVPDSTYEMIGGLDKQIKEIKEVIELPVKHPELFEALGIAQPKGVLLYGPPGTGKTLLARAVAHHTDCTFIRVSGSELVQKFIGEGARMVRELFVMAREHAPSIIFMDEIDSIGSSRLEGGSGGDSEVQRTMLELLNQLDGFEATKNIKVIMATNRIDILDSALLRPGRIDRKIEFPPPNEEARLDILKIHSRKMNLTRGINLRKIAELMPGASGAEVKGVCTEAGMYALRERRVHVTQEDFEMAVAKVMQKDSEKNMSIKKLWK
Sequence of Human 19S ATPase (P35998 2-433, further chain): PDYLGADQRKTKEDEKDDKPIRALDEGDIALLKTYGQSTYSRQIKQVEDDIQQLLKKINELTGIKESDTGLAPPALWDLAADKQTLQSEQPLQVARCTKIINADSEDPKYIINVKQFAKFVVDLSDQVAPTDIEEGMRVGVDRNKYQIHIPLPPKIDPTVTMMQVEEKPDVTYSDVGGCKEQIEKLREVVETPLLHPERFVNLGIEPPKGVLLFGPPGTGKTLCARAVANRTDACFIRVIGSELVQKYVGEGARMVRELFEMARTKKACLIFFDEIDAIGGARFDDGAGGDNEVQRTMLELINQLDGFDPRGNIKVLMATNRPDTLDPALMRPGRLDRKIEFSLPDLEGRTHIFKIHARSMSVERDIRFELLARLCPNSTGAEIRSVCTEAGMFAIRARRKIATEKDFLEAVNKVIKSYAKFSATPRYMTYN
Sequence of Human 19S ATPase (P62191 2-440, further chain): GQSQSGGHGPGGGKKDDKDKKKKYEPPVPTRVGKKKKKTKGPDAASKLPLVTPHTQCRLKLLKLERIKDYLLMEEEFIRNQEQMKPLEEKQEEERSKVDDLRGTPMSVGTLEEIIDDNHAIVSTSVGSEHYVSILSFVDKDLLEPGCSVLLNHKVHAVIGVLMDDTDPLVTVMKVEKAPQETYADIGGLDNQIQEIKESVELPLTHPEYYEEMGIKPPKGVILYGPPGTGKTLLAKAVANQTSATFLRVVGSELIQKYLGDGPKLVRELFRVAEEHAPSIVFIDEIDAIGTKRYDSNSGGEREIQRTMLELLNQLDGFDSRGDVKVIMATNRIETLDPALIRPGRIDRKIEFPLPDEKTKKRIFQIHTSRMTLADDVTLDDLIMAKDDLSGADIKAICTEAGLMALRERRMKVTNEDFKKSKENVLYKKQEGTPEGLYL
Sequence of Human 19S ATPase (P43686 whole entry, further chain): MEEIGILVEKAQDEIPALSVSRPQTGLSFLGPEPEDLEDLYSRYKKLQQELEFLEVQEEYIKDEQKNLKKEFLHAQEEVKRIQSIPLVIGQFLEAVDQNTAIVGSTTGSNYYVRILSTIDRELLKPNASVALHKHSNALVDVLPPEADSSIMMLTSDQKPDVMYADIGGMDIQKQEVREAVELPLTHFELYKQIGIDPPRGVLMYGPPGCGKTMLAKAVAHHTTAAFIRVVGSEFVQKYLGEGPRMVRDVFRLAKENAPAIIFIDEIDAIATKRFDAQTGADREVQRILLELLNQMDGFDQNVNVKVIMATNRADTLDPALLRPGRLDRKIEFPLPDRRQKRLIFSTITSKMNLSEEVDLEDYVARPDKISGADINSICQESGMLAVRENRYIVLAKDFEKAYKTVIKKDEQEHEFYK
Description: as §2, §3

SMILES: C=CC(=O)Nc1ncnc2c1c(-c1ccccc1)nn2C(C)(C)C [Compound 2]
- accumulation of TCR-alpha-GFP [1]: substantial TCR-alpha-GFP accumulation
- GI50 (LNCaP): 2.7 ± 1.2 µM
- GI50 (HTC116 WT): 2.4 ± 1.2 µM
- IC50 (Hamster NSF; 20-minute preincubation): 105 ± 31 µM
- NSF less sensitive than p97 (Hamster NSF; NSF vs p97): more than 100 fold
- K, rate constant of Ub-G76V-GFP degradation (Ub-G76V-GFP/HeLa cells; 0.01 μM): 0.0318 min⁻¹
- % K (Ub-G76V-GFP/HeLa cells; 0.01 μM): 83%
- K, rate constant of Ub-G76V-GFP degradation (Ub-G76V-GFP/HeLa cells; 0.04 μM): 0.0306 min⁻¹
- % K (Ub-G76V-GFP/HeLa cells; 0.04 μM): 80%
- K, rate constant of Ub-G76V-GFP degradation (Ub-G76V-GFP/HeLa cells; 0.16 μM): 0.0292 min⁻¹
- % K (Ub-G76V-GFP/HeLa cells; 0.16 μM): 76%
- K, rate constant of Ub-G76V-GFP degradation (Ub-G76V-GFP/HeLa cells; 0.63 μM): 0.0237 min⁻¹
- % K (Ub-G76V-GFP/HeLa cells; 0.63 μM): 62%
- K, rate constant of Ub-G76V-GFP degradation (Ub-G76V-GFP/HeLa cells; 2.5 μM): 0.0189 min⁻¹
- % K (Ub-G76V-GFP/HeLa cells; 2.5 μM): 49%
- K, rate constant of Ub-G76V-GFP degradation (Ub-G76V-GFP/HeLa cells; 10 μM): 0.0015 min⁻¹
- % K (Ub-G76V-GFP/HeLa cells; 10 μM): 4%
- IC50 (Ub-G76V-GFP/HeLa cells; Homo sapiens, HeLa, 1 h, read-out: IC50 on the decay of Ub-G76V-GFP): 1.25 ± 0.47 µM
- accumulation of high molecular weight ubiquitin conjugates, HeLa cells (HeLa cells): caused accumulation of high molecular weight ubiquitin conjugates
- GI50 (HCT116 p53−/−): 2.5 ± 1.5 µM
- GI50 (MCF7): 0.5 ± 0.1 µM
- GI50 (HeLa): 0.4 ± 0.3 µM
- IC50 (Human 19S ATPase): 75 µM

From patent US9089572B2, “Inhibitors of p97” (California Institute of Technology, priority 2008, dated 2015)
